Data as given in patent publication US11020399B2, “Intermediates useful in the synthesis of compounds as modulators of protein kinases” (Rhizen Pharmaceuticals SA, priority 2011, dated 2021).

Key:
PI3kδ = PI3kδ (Homo sapiens, UniProt O00329); test: Fluorescent (HTRF) determination of PI3 kinase enzyme activity, PI3Kδ; type: biochemical; settings: for inhibition at 0.1 µM / % inhibition (PI3kδ) 100 nM: 100 nM (Examples 60-137); for % inhibition (PI3kδ) 100 nM: 0.1 µM; for inhibition at 0.3 µM: 300 nM (Examples 1-59)
Summary of the method: (§1)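 HTRF detection of PIP3 from PIP2 (1.38 μM in reaction mix) with 10 mM MgCl2, 5 mM DTT; compound preincubated with enzyme 10 min, then ATP (400 μM addition) 30 min at room temperature. Percent inhibition versus blank and enzyme controls at 1 μM (α, β) and 0.3 or 0.1 μM (γ, δ); IC50 also fitted.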

PI3kγ = PI3kγ (Homo sapiens, UniProt P48736); test: Fluorescent (HTRF) determination of PI3 kinase enzyme activity, PI3Kγ; type: biochemical; settings: for inhibition at 0.1 µM / % inhibition (PI3kγ) 100 nM: 100 nM (Examples 60-137); for % inhibition (PI3kγ) 100 nM: 0.1 µM; for inhibition at 0.3 µM: 300 nM (Examples 1-59)
Summary of the method: as §1

PI3kβ = PI3kβ (Homo sapiens, UniProt P42338); test: Fluorescent (HTRF) determination of PI3 kinase enzyme activity, PI3Kβ; type: biochemical
Summary of the method: as §1

PI3kα = PI3kα (Homo sapiens, UniProt P42336); test: Fluorescent (HTRF) determination of PI3 kinase enzyme activity, PI3Kα; type: biochemical
Summary of the method: as §1

PI3kδ, sequence (O00329 whole entry): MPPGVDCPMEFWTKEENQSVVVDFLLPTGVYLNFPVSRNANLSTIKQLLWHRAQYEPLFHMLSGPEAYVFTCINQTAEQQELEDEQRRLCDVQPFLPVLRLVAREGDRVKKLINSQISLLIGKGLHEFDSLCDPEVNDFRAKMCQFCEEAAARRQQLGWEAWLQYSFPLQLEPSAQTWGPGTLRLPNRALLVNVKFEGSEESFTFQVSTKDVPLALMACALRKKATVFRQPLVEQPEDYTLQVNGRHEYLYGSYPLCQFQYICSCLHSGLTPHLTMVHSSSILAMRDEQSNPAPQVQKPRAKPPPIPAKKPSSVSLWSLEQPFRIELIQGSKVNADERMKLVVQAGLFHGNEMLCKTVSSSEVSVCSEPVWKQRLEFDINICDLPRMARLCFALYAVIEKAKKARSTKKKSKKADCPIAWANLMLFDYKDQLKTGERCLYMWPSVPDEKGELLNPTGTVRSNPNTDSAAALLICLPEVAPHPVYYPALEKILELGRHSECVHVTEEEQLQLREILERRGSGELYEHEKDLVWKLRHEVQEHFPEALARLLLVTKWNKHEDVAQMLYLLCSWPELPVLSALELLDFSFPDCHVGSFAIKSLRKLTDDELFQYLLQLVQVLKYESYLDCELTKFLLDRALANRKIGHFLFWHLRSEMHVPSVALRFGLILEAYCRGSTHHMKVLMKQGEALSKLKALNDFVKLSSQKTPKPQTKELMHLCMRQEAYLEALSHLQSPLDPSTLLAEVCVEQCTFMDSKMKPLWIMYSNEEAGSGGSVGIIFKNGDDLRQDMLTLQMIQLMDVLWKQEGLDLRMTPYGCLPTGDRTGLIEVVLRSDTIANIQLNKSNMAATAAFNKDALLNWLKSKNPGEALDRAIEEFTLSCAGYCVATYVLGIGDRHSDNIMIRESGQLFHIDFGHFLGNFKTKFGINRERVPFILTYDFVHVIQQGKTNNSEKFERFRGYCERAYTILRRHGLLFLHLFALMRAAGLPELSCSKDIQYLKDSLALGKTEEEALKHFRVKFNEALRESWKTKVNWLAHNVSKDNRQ
PI3kδ, sequence (P27986 whole entry partner): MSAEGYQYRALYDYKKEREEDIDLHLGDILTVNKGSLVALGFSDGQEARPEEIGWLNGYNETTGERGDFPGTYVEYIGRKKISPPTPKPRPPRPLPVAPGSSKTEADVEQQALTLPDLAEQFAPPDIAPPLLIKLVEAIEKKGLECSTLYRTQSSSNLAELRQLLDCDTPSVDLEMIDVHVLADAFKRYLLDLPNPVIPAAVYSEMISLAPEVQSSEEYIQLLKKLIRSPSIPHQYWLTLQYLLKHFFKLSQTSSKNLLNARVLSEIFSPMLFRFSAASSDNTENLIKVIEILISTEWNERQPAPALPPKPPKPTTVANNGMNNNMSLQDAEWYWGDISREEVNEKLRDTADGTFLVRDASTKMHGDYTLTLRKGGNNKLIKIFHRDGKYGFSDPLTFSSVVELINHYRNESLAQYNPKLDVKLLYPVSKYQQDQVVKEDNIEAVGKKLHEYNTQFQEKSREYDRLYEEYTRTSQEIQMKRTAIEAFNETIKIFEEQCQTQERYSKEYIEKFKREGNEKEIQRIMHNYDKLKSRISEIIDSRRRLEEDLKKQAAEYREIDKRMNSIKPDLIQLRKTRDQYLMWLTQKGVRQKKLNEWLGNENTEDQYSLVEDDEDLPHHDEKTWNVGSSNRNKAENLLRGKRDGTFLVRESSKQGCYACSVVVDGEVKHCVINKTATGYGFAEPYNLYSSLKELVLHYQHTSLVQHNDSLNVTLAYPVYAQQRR
PI3kγ, sequence (P48736 whole entry): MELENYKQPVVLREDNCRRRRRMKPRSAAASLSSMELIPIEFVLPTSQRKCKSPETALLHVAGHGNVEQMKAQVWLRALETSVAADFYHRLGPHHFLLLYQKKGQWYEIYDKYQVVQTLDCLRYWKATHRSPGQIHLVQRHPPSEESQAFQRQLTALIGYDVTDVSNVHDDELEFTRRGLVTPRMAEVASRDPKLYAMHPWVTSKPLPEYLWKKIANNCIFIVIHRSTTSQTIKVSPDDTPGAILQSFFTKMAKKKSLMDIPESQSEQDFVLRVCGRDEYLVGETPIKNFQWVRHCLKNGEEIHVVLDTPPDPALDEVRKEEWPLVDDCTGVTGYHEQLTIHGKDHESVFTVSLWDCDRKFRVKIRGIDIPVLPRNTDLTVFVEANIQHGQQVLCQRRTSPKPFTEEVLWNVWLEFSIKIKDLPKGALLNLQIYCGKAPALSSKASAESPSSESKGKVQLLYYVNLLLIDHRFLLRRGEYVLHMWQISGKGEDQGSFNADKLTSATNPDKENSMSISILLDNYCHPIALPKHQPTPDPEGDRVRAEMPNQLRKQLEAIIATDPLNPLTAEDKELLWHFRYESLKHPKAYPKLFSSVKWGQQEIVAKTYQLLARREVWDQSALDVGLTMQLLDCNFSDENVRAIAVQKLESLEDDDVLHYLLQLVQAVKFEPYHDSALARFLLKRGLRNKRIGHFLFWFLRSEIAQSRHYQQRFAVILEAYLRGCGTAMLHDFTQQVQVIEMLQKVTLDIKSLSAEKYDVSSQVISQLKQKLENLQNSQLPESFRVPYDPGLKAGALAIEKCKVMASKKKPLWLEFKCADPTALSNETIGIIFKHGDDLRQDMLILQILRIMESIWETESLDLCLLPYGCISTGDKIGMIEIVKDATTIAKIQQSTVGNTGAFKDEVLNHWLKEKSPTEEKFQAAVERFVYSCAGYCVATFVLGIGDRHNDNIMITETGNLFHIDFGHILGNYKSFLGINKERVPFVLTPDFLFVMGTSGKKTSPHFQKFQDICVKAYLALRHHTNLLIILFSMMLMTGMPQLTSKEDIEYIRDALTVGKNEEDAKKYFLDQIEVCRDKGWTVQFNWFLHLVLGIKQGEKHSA
PI3kβ, sequence (P42338 whole entry): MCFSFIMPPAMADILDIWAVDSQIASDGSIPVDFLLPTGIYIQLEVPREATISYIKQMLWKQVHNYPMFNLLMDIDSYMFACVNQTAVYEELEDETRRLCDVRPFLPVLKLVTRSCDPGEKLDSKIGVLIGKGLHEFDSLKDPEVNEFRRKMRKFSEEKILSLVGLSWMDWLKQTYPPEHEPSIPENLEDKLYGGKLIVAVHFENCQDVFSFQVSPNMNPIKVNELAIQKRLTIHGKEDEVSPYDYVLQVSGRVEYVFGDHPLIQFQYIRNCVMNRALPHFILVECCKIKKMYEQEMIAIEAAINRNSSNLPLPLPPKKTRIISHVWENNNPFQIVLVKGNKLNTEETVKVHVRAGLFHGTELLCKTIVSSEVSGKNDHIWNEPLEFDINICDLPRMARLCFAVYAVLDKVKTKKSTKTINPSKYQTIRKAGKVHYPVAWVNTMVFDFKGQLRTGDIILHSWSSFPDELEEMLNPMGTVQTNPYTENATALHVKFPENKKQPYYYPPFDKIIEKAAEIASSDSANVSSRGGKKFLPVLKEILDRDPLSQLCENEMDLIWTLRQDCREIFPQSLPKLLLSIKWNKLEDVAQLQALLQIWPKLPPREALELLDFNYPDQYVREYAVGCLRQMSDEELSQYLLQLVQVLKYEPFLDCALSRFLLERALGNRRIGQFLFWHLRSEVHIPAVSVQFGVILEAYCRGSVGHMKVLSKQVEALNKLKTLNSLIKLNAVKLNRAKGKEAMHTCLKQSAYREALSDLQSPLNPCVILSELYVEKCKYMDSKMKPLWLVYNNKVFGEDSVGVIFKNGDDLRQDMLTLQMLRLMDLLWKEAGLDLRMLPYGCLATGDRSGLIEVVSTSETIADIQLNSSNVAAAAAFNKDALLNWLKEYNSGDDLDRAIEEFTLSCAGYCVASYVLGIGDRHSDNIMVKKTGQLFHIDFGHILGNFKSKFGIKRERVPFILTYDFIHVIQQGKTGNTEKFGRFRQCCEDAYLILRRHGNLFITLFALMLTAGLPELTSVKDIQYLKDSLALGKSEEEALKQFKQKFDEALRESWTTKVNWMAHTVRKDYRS
PI3kβ, sequence (P27986 whole entry partner): as the sequence (P27986 whole entry partner) above
PI3kα, sequence (P42336 whole entry): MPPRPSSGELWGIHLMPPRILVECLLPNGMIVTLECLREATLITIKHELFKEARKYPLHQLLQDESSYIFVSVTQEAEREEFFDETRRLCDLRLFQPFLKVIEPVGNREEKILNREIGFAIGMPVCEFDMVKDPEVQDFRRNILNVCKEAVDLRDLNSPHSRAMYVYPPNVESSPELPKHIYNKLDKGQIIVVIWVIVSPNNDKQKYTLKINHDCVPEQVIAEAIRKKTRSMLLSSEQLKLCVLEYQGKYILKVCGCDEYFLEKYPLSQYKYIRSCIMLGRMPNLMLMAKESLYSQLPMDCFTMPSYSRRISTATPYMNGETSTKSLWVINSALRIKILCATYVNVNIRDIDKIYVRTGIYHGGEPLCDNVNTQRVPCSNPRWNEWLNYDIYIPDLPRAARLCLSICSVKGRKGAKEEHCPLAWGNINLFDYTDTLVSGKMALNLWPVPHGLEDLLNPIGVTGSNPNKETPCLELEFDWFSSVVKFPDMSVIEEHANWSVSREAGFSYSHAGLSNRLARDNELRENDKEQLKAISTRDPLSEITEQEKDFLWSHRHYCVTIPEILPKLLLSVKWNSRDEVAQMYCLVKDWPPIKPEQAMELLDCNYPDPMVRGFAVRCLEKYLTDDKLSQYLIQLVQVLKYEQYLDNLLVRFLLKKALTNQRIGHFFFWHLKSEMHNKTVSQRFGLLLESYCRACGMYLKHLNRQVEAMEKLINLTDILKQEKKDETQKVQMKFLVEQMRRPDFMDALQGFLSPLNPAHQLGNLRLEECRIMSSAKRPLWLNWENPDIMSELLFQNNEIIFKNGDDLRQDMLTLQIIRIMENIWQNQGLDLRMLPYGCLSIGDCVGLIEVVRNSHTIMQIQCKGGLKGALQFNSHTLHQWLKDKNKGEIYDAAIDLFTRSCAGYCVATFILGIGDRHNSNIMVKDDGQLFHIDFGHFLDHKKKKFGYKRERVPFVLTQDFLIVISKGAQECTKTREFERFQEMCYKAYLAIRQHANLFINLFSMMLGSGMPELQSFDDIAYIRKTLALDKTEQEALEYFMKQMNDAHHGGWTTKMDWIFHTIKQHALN
PI3kα, sequence (P27986 whole entry partner): as the sequence (P27986 whole entry partner) above

| SMILES | inhibition at 0.1 µM (PI3kδ) [%] | inhibition at 0.1 µM (PI3kγ) [%] | melting point [°C] | inhibition at 1 µM (PI3kβ) [%] | inhibition at 1 µM (PI3kα) [%] | also measured |
| --- | --- | --- | --- | --- | --- | --- |
| CC(c1oc2cccc(F)c2c(=O)c1-c1cccc(F)c1)n1nc(-c2ccc(N3CCOCC3)c(Cl)c2)c2c(N)ncnc21 (single isomer, unassigned) [Example 127] | 50 to 75 | 0 to 25 | 260 to 262 | 50 to 75 | 0 to 25 | – |
| CC(Nc1ncnc2[nH]cnc12)c1oc2cccc(F)c2c(=O)c1-c1cccc(F)c1 (single isomer, unassigned; (-)) [Example 78, (−)-2-(1-(9H-purin-6-ylamino)ethyl)-5-fluoro-3-(3-fluorophenyl)-4H-chromen-4-one] | 50 to 75 | – | 205 to 208 | 25 to 50 | 0 to 25 | IC50 (PI3kδ): 50 to 100 nM |
| CC(c1oc2cccc(F)c2c(=O)c1-c1cccc(F)c1)n1nc(-c2ccc(OC3COC3)c(F)c2)c2c(N)ncnc21 (stereo not drawn) [Example 46, 2-(1-(4-amino-3-(3-fluoro-4-(oxetan-3-yloxy)phenyl)-1H-pyrazolo[3,4-d]pyrimidin-1-yl)ethyl)-5-fluoro-3-(3-fluorophenyl)-4H-chromen-4-one] | – | – | 235 to 237 | 50 to 75 | 0 to 25 | inhibition at 0.3 µM (PI3kδ): 25 to 50%; inhibition at 0.3 µM (PI3kγ): 50 to 75% |
| CC(C)C(=O)Nc1ccc(-c2nn(C(C)c3oc4cccc(F)c4c(=O)c3-c3cccc(F)c3)c3ncnc(N)c23)cc1 (stereo not drawn) [Example 48, N-(4-(4-amino-1-(1-(5-fluoro-3-(3-fluorophenyl)-4-oxo-4H-chromen-2-yl)ethyl)-1H-pyrazolo[3,4-d]pyrimidin-3-yl)phenyl)isobutyramide] | – | – | 154 to 157 | 25 to 50 | – | inhibition at 0.3 µM (PI3kδ): 50 to 75%; IC50 (PI3kγ): ≤ 50 nM; inhibition at 0.3 µM (PI3kγ): 75 to 100% |
| CC(C)Cc1ccc(-c2nn(C(C)c3oc4cccc(F)c4c(=O)c3-c3cccc(F)c3)c3ncnc(N)c23)cc1 (stereo not drawn) [Example 49, 2-(1-(4-amino-3-(4-isobutylphenyl)-1H-pyrazolo[3,4-d]pyrimidin-1-yl)ethyl)-5-fluoro-3-(3-fluorophenyl)-4H-chromen-4-one] | – | – | 221 to 223 | 50 to 75 | 50 to 75 | inhibition at 0.3 µM (PI3kδ): 50 to 75%; inhibition at 0.3 µM (PI3kγ): 50 to 75% |
| CNS(=O)(=O)c1ccc(-c2nn(C(C)c3oc4cccc(F)c4c(=O)c3-c3cccc(F)c3)c3ncnc(N)c23)cc1 (stereo not drawn) [Example 52, 4-(4-amino-1-(1-(5-fluoro-3-(3-fluorophenyl)-4-oxo-4H-chromen-2-yl)ethyl)-1H-pyrazolo[3,4-d]pyrimidin-3-yl)-N-methylbenzenesulfonamide] | – | – | 175 to 178 | 50 to 75 | 25 to 50 | inhibition at 0.3 µM (PI3kδ): 50 to 75%; inhibition at 0.3 µM (PI3kγ): 50 to 75% |
| COC(=O)c1ccc(-c2nn(C(C)c3oc4cccc(F)c4c(=O)c3-c3cccc(F)c3)c3ncnc(N)c23)c(F)c1 (stereo not drawn) [Example 64, methyl 4-(4-amino-1-(1-(5-fluoro-3-(3-fluorophenyl)-4-oxo-4H-chromen-2-yl)ethyl)-1H-pyrazolo[3,4-d]pyrimidin-3-yl)-3-fluorobenzoate] | 50 to 75 | 25 to 50 | 258 to 260 | 25 to 50 | – | – |
| CC(Nc1ncnc2[nH]cnc12)c1oc2cccc(F)c2c(=O)c1-c1cccc(F)c1 (stereo not drawn) [Example 69, 2-(1-(9H-purin-6-ylamino)ethyl)-5-fluoro-3-(3-fluorophenyl)-4H-chromen-4-one] | – | – | 247 to 249 | – | – | % inhibition (PI3kδ) 100 nM (PI3kδ): B (B=>50 to 75%); % inhibition (PI3kγ) 100 nM (PI3kγ): A (A=>75 to 100%); % inhibition (PI3kβ) 1 uM (PI3kβ): C (C=>25 to 50%) |
| CC(C)C(=O)Nc1ccc(-c2nn(C(C)c3oc4cccc(F)c4c(=O)c3-c3ccc(F)cc3)c3ncnc(N4CCOCC4)c23)cc1F (stereo not drawn) [Example 86, N-(2-fluoro-4-(1-(1-(5-fluoro-3-(4-fluorophenyl)-4-oxo-4H-chromen-2-yl)ethyl)-4-morpholino-1H-pyrazolo[3,4-d]pyrimidin-3-yl)phenyl)isobutyramide] | 50 to 75 | 25 to 50 | 165 to 167 | – | 0 to 25 | IC50 (PI3kγ): > 500 nM |
| CC(C)Oc1ccc(-c2nn(C(C)c3oc4cccc(N5CCOCC5)c4c(=O)c3-c3cccc(F)c3)c3ncnc(N)c23)cc1F (stereo not drawn) [Example 120, 2-(1-(4-amino-3-(3-fluoro-4-isopropoxyphenyl)-1H-pyrazolo[3,4-d]pyrimidin-1-yl)ethyl)-3-(3-fluorophenyl)-5-morpholino-4H-chromen-4-one] | 0 to 25 | 0 to 25 | 227 to 229 | – | – | – |
| CC(c1oc2cccc(F)c2c(=O)c1-c1cccc(F)c1)n1cnc2c(N3CCN(C)CC3)ncnc21 (stereo not drawn) [Example 125, 5-fluoro-3-(3-fluorophenyl)-2-(1-(6-(4-methylpiperazin-1-yl)-9H-purin-9-yl)ethyl)-4H-chromen-4-one] | 25 to 50 | – | 199 to 201 | – | 0 to 25 | – |

More lines, main results first:

| inhibition at 0.1 µM (PI3kδ) [%] | inhibition at 0.1 µM (PI3kγ) [%] | melting point [°C] | inhibition at 1 µM (PI3kβ) [%] | inhibition at 1 µM (PI3kα) [%] | SMILES | also measured |
| --- | --- | --- | --- | --- | --- | --- |
| 25 to 50 | 25 to 50 | 243 to 246 | – | – | CC(c1oc2cccc(F)c2c(=O)c1-c1cccc(F)c1)n1nc(-c2ccc(N3CCOCC3)c(F)c2)c2c(N)ncnc21 (racemic) [Example 70, (R)/(S)-2-(1-(4-amino-3-(3-fluoro-4-morpholinophenyl)-1H-pyrazolo[3,4-d]pyrimidin-1-yl)ethyl)-5-fluoro-3-(3-fluorophenyl)-4H-chromen-4-one] | % inhibition (PI3kβ) 1 uM (PI3kβ): C (C=>25 to 50%); % inhibition (PI3kα) 1 uM (PI3kα): D (D=0 to 25%) |
| – | – | 187 to 189 | – | – | CC(c1oc2cccc(F)c2c(=O)c1-c1cccc(F)c1)n1cnc2c(N(C)C)ncnc21 (racemic) [Example 129, (S)/(R)-2-(1-(6-(dimethylamino)-9H-purin-9-yl)ethyl)-5-fluoro-3-(3-fluorophenyl)-4H-chromen-4-one] | % inhibition (PI3kδ) 100 nM (PI3kδ): D (D=0 to 25%); % inhibition (PI3kγ) 100 nM (PI3kγ): C (C=>25 to 50%); % inhibition (PI3kβ) 1 uM (PI3kβ): C (C=>25 to 50%); % inhibition (PI3kα) 1 uM (PI3kα): D (D=0 to 25%) |
| – | – | 242 to 245 | 25 to 50 | – | CC(c1oc2cccc(F)c2c(=O)c1-c1cccc(F)c1)n1nc(-c2ccc(N3CCOCC3)c(F)c2)c2c(N)ncnc21 (single isomer, unassigned) [Example 59] | IC50 (PI3kδ): 100 to 300 nM; IC50 (PI3kγ): ≤ 50 nM; IC50 (PI3kβ): > 500 nM; IC50 (PI3kα; numeric values): > 10000 nM |
| 25 to 50 | 25 to 50 | 198 to 200 | 25 to 50 | – | CC(c1oc2cccc(F)c2c(=O)c1-c1cccc(F)c1)n1cnc2c(N(C)C)ncnc21 (single isomer, unassigned) [Example 130] | – |
| 25 to 50 | 0 to 25 | 208 to 210 | 50 to 75 | 0 to 25 | Cc1cccc2oc([C@H](C)n3nc(-c4ccc(OC(C)C)c(F)c4)c4c(N)ncnc43)c(-c3ccccc3)c(=O)c12 (single isomer, unassigned) [Example 137] | – |
| – | – | 194 to 197 | – | 25 to 50 | CC(Nc1ncnc2[nH]cnc12)c1oc2cccc(F)c2c(=O)c1-c1cccc(F)c1 (single isomer, unassigned; (+)) [Example 68, (+)-2-(1-(9H-purin-6-ylamino)ethyl)-5-fluoro-3-(3-fluorophenyl)-4H-chromen-4-one] | % inhibition (PI3kδ) 100 nM (PI3kδ): C (C=>25 to 50%); % inhibition (PI3kγ) 100 nM (PI3kγ): B (B=>50 to 75%); % inhibition (PI3kβ) 1 uM (PI3kβ): B (B=>50 to 75%) |
| – | – | 199 to 201 | 25 to 50 | 25 to 50 | CNc1nnc(-c2ccc(-c3nn(C(C)c4oc5cccc(F)c5c(=O)c4-c4cccc(F)c4)c4ncnc(N)c34)cc2)s1 (stereo not drawn) [Example 54, 2-(1-(4-amino-3-(4-(5-(methylamino)-1,3,4-thiadiazol-2-yl)phenyl)-1H-pyrazolo[3,4-d]pyrimidin-1-yl)ethyl)-5-fluoro-3-(3-fluorophenyl)-4H-chromen-4-one] | inhibition at 0.3 µM (PI3kδ): 50 to 75%; inhibition at 0.3 µM (PI3kγ): 50 to 75% |
| 25 to 50 | 25 to 50 | 135 to 138 | – | – | CC(c1oc2cccc(F)c2c(=O)c1-c1cn[nH]c1)n1nc(-c2ccc(OC(F)F)c(F)c2)c2c(N)ncnc21 (stereo not drawn) [Example 91, 2-(1-(4-amino-3-(4-(difluoromethoxy)-3-fluorophenyl)-1H-pyrazolo[3,4-d]pyrimidin-1-yl)ethyl)-5-fluoro-3-(1H-pyrazol-4-yl)-4H-chromen-4-one] | – |
| 25 to 50 | 0 to 25 | 242 to 245 | – | – | CC(c1oc2cccc(F)c2c(=O)c1-c1cccc(F)c1)n1nc(-c2ccc3c(c2)C(=O)NC3)c2c(N)ncnc21 (stereo not drawn) [Example 122, 6-(4-amino-1-(1-(5-fluoro-3-(3-fluorophenyl)-4-oxo-4H-chromen-2-yl)ethyl)-1H-pyrazolo[3,4-d]pyrimidin-3-yl)isoindolin-1-one] | – |
| 50 to 75 | 25 to 50 | 225 to 227 | – | – | CCOc1ccc(-c2nn(C(C)c3oc4cccc(F)c4c(=O)c3-c3cccc(F)c3)c3ncnc(N)c23)cc1C(F)(F)F (stereo not drawn) [Example 132, 2-(1-(4-amino-3-(4-ethoxy-3-(trifluoromethyl)phenyl)-1H-pyrazolo[3,4-d]pyrimidin-1-yl)ethyl)-5-fluoro-3-(3-fluorophenyl)-4H-chromen-4-one] | – |
